Measured values taken from PubChem BioAssay (NCI).
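Protocol summary: plate cells (96-well), add compound at 5 concentrations, incubate 48 h, interpolate endpoints linearly. TGI: concentration producing complete growth inhibition.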

How the values were obtained:
Assay in all cases: NCI tumour cell line growth inhibition, 48 h
TK-10 renal = system: TK-10 renal
SK-MEL-28 melanoma = system: SK-MEL-28 melanoma
LXFL 529 NSCLC = system: LXFL 529 NSCLC
HT29 colon = system: HT29 colon
LOX IMVI melanoma = system: LOX IMVI melanoma
OVCAR-3 ovarian = system: OVCAR-3 ovarian
DLD-1 colon = system: DLD-1 colon
ACHN renal = system: ACHN renal
RXF 393 renal = system: RXF 393 renal
SW-620 colon = system: SW-620 colon
DMS 273 small cell lung = system: DMS 273 small cell lung
SF-268 CNS = system: SF-268 CNS
HCT-15 colon = system: HCT-15 colon
OVCAR-8 ovarian = system: OVCAR-8 ovarian
K-562 leukemia = system: K-562 leukemia
EKVX NSCLC = system: EKVX NSCLC
HOP-62 NSCLC = system: HOP-62 NSCLC
HOP-18 NSCLC = system: HOP-18 NSCLC
OVCAR-4 ovarian = system: OVCAR-4 ovarian
SNB-19 CNS = system: SNB-19 CNS
NCI-H23 lung = system: NCI-H23 lung
M19-MEL melanoma = system: M19-MEL melanoma
M14 melanoma = system: M14 melanoma
HOP-92 NSCLC = system: HOP-92 NSCLC
SN12C renal = system: SN12C renal
SK-OV-3 ovarian = system: SK-OV-3 ovarian
NCI-H460 lung = system: NCI-H460 lung
786-0 renal = system: 786-0 renal
SNB-75 CNS = system: SNB-75 CNS
COLO 205 colon = system: COLO 205 colon
HL-60(TB) leukemia = system: HL-60(TB) leukemia
CAKI-1 renal = system: CAKI-1 renal
A549 NSCLC = system: A549 NSCLC
SK-MEL-2 melanoma = system: SK-MEL-2 melanoma
HCT-116 colon = system: HCT-116 colon
UACC-62 melanoma = system: UACC-62 melanoma
NCI-H226 lung = system: NCI-H226 lung
UACC-257 melanoma = system: UACC-257 melanoma
KM12 colon = system: KM12 colon
A498 renal = system: A498 renal
MALME-3M melanoma = system: MALME-3M melanoma
SF-295 CNS = system: SF-295 CNS
XF 498 CNS = system: XF 498 CNS
NCI-H522 lung = system: NCI-H522 lung
IGROV1 ovarian = system: IGROV1 ovarian
SR leukemia = system: SR leukemia
OVCAR-5 ovarian = system: OVCAR-5 ovarian
SNB-78 CNS = system: SNB-78 CNS
U251 CNS = system: U251 CNS
SF-539 CNS = system: SF-539 CNS
CCRF-CEM leukemia = system: CCRF-CEM leukemia
UO-31 renal = system: UO-31 renal
RXF-631 renal = system: RXF-631 renal
HCC-2998 colon = system: HCC-2998 colon
MOLT-4 leukemia = system: MOLT-4 leukemia
DMS 114 small cell lung = system: DMS 114 small cell lung
SK-MEL-5 melanoma = system: SK-MEL-5 melanoma

Structure (SMILES): N#Cc1cccc(/C=N/N=C(\N)NO)c1
- TGI (TK-10 renal): > 100 µM
- TGI (SK-MEL-28 melanoma): > 100 µM
- TGI (LXFL 529 NSCLC): > 100 µM
- TGI (HT29 colon): > 100 µM
- TGI (LOX IMVI melanoma): > 100 µM
- TGI (OVCAR-3 ovarian): > 100 µM
- TGI (DLD-1 colon): > 100 µM
- TGI (ACHN renal): > 100 µM
- TGI (RXF 393 renal): > 100 µM
- TGI (SW-620 colon): > 100 µM
- TGI (DMS 273 small cell lung): > 100 µM
- TGI (SF-268 CNS): > 100 µM
- TGI (HCT-15 colon): > 100 µM
- TGI (OVCAR-8 ovarian): > 100 µM
- TGI (K-562 leukemia): > 100 µM
- TGI (EKVX NSCLC): > 100 µM
- TGI (HOP-62 NSCLC): > 100 µM
- TGI (HOP-18 NSCLC): > 100 µM
- TGI (OVCAR-4 ovarian): > 100 µM
- TGI (SNB-19 CNS): > 100 µM
- TGI (NCI-H23 lung): > 100 µM
- TGI (M19-MEL melanoma): > 100 µM
- TGI (M14 melanoma): > 100 µM
- TGI (HOP-92 NSCLC): > 100 µM
- TGI (SN12C renal): > 100 µM
- TGI (SK-OV-3 ovarian): > 100 µM
- TGI (NCI-H460 lung): > 100 µM
- TGI (786-0 renal): > 100 µM
- TGI (SNB-75 CNS): > 100 µM
- TGI (COLO 205 colon): > 100 µM
- TGI (HL-60(TB) leukemia): > 100 µM
- TGI (CAKI-1 renal): > 100 µM
- TGI (A549 NSCLC): > 100 µM
- TGI (SK-MEL-2 melanoma): > 100 µM
- TGI (HCT-116 colon): > 100 µM
- TGI (UACC-62 melanoma): 52.8 µM
- TGI (NCI-H226 lung): > 100 µM
- TGI (UACC-257 melanoma): > 100 µM
- TGI (KM12 colon): > 100 µM
- TGI (A498 renal): > 100 µM
- TGI (MALME-3M melanoma): > 100 µM
- TGI (SF-295 CNS): > 100 µM
- TGI (XF 498 CNS): > 100 µM
- TGI (NCI-H522 lung): > 100 µM
- TGI (IGROV1 ovarian): > 100 µM
- TGI (SR leukemia): > 100 µM
- TGI (OVCAR-5 ovarian): > 100 µM
- TGI (SNB-78 CNS): > 100 µM
- TGI (U251 CNS): > 100 µM
- TGI (SF-539 CNS): > 100 µM
- TGI (CCRF-CEM leukemia): > 100 µM
- TGI (UO-31 renal): > 100 µM

Structure (SMILES): CN1C(=O)C2C(C1=O)C1(O)c3ccccc3C2(N)c2ccccc21 (stereo not given)
- TGI (TK-10 renal): > 100 µM
- TGI (SK-MEL-28 melanoma): > 100 µM
- TGI (HT29 colon): > 100 µM
- TGI (LOX IMVI melanoma): > 100 µM
- TGI (OVCAR-3 ovarian): > 100 µM
- TGI (DLD-1 colon): > 100 µM
- TGI (ACHN renal): > 100 µM
- TGI (RXF 393 renal): > 100 µM
- TGI (SW-620 colon): > 100 µM
- TGI (DMS 273 small cell lung): > 100 µM
- TGI (SF-268 CNS): > 100 µM
- TGI (RXF-631 renal): > 100 µM
- TGI (HCT-15 colon): > 100 µM
- TGI (OVCAR-8 ovarian): > 100 µM
- TGI (K-562 leukemia): > 100 µM
- TGI (EKVX NSCLC): > 100 µM
- TGI (HOP-62 NSCLC): > 100 µM
- TGI (HOP-18 NSCLC): > 100 µM
- TGI (HCC-2998 colon): > 100 µM
- TGI (OVCAR-4 ovarian): > 100 µM
- TGI (SNB-19 CNS): > 100 µM
- TGI (NCI-H23 lung): > 100 µM
- TGI (M19-MEL melanoma): > 100 µM
- TGI (M14 melanoma): > 100 µM
- TGI (HOP-92 NSCLC): > 100 µM
- TGI (SN12C renal): > 100 µM
- TGI (SK-OV-3 ovarian): > 100 µM
- TGI (NCI-H460 lung): > 100 µM
- TGI (786-0 renal): > 100 µM
- TGI (SNB-75 CNS): > 100 µM
- TGI (COLO 205 colon): > 100 µM
- TGI (HL-60(TB) leukemia): > 100 µM
- TGI (CAKI-1 renal): > 100 µM
- TGI (A549 NSCLC): > 100 µM
- TGI (SK-MEL-2 melanoma): > 100 µM
- TGI (HCT-116 colon): > 100 µM
- TGI (UACC-62 melanoma): > 100 µM
- TGI (NCI-H226 lung): > 100 µM
- TGI (MOLT-4 leukemia): > 100 µM
- TGI (UACC-257 melanoma): > 100 µM
- TGI (KM12 colon): > 100 µM
- TGI (A498 renal): > 100 µM
- TGI (DMS 114 small cell lung): > 100 µM
- TGI (MALME-3M melanoma): > 100 µM
- TGI (SF-295 CNS): > 100 µM
- TGI (SK-MEL-5 melanoma): > 100 µM
- TGI (IGROV1 ovarian): > 100 µM
- TGI (OVCAR-5 ovarian): > 100 µM
- TGI (SNB-78 CNS): > 100 µM
- TGI (U251 CNS): > 100 µM
- TGI (SF-539 CNS): > 100 µM
- TGI (CCRF-CEM leukemia): > 100 µM
- TGI (UO-31 renal): > 100 µM
